# Molecular target: T1, human adenosine A2A receptor (Homo sapiens, UniProt P29274)
# T1 construct: expressed in transfected cells; host or cells: CHO cells, Semliki Forest virus expression system; washed membrane preparation
# Assay: [3H]-SCH-58261 binding assay, human adenosine A2A receptor (CHO cell membranes, SPA)
# Details: [3H]-SCH-58261 1 nM; membranes of CHO cells expressing human A2A receptor; Ki from IC50 by Cheng-Prussoff equation; read-out: hA2 (pKi) (converted)
# Procedure: Human Adenosine A2A Receptor
# The human adenosine A2A receptor was recombinantly expressed in chinese hamster ovary (CHO) cells using the semliki forest virus expression system. Cells were harvested, washed twice by centrifugation, homogenized and again washed by centrifugation. The final washed membrane pellet was suspended in a Tris (50 mM) buffer containing 120 mM NaCl, 5 mM KCl, 2 mM CaCl2 and 10 mM MgCl2 (pH 7.4) (buffer A). The [^3H]-SCH-58261 (Dionisotti et al., 1997, Br J Pharmacol 121, 353; 1 nM) binding assay was carried out in 96-well plates in the presence of 2.5 μg of membrane protein, 0.5 mg of Ysi-poly-1-lysine SPA beads and 0.1 U adenosine deaminase in a final volume of 200 μl of buffer A. Non-specific binding was defined using xanthine amine congener (XAC; 2 μM). Compounds were tested at 10 concentrations from 10 μM-0.3 nM. All assays were conducted in duplicate and repeated at least two times. Assay plates were incubated for 1 hour at room temperature before centricentrifugation and then bound ligand determined of test compound using a Packard Topcount scintillation counter. IC50 values, the concentration where 50% of the […] binding is displaced, were calculated using a non-linear curve fitting program and Ki values calculated using the Cheng-Prussoff equation.
# Preferred compounds of formula I have a pKi>6.4.
# T1 sequence (P29274 whole entry): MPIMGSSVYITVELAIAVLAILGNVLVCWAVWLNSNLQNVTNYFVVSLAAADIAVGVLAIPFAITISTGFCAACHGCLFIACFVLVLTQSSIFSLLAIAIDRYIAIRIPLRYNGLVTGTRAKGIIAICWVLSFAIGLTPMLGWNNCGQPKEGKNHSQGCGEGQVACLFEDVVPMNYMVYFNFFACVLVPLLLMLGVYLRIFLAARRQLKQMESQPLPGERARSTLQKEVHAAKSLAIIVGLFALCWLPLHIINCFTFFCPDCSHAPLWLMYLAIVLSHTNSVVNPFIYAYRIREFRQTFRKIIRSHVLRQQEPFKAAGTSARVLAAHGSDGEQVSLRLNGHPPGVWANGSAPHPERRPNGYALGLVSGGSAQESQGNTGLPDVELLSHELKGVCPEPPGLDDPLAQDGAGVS
row,Ki [µM],Structure (SMILES)
1,0.155,"COc1ccc(-c2ccccc2)c2sc(NC(=O)N3CCSCC3)cc12 [Example 1, Thiomorpholine-4-carboxylic acid (4-methoxy-7-phenyl-benzo[b]thiophen-2-yl)-amide]"
2,0.263,"COc1ccc(-c2ccccc2)c2sc(NC(=O)N3CCOCC3)cc12 [Example 2, Morpholine-4-carboxylic acid (4-methoxy-7-phenyl-benzo[b]thiophen-2-yl)-amide]"
3,0.257,"COc1ccc(-c2ccccc2)c2sc(NC(=O)N3CCCCC3)cc12 [Example 3, Piperidine-1-carboxylic acid (4-methoxy-7-phenyl-benzo[b]thiophen-2-yl)-amide]"
4,0.126,"COc1ccc(-c2ccccc2)c2sc(NC(=O)N3CCC(O)CC3)cc12 [Example 4, 4-Hydroxy-piperidine-1-carboxylic acid (4-methoxy-7-phenyl-benzo[b]thiophen-2-yl)-amide]"
5,0.347,"COc1ccc(-c2ccccc2)c2sc(NC(=O)N3CCC(OC)CC3)cc12 [Example 5, 4-Methoxy-piperidine-1-carboxylic acid (4-methoxy-7-phenyl-benzo[b]thiophen-2-yl)-amide]"
6,0.0977,"COc1ccc(-c2ccccc2)c2sc(NC(=O)N3CCC(CO)CC3)cc12 [Example 6, 4-Hydroxymethyl-piperidine-1-carboxylic acid (4-methoxy-7-phenyl-benzo[b]thiophen-2-yl)-amide]"
7,0.24,"COc1ccc(-c2ccccc2)c2sc(NC(=O)N3CCN(C)CC3)cc12 [Example 7, 4-Methyl-piperazine-1-carboxylic acid (4-methoxy-7-phenyl-benzo[b]thiophen-2-yl)-amide]"
8,0.302,"COc1ccc(-c2ccccc2)c2sc(NC(=O)c3ccc(C)nc3)cc12 [Example 8, N-(4-Methoxy-7-phenyl-benzo[b]thiophen-2-yl)-6-methyl-nicotinamide]"
9,0.389,"COc1ccc(-c2ccccc2)c2sc(NC(=O)c3ccnc(C)c3)cc12 [Example 9, N-(4-Methoxy-7-phenyl-benzo[b]thiophen-2-yl)-2-methyl-isonicotinamide]"
10,0.0437,"COc1ccc(-c2ccccc2)c2sc(NC(=O)c3ccc(F)cc3)cc12 [Example 10, 4-Fluoro-N-(4-methoxy-7-phenyl-benzo[b]thiophen-2-yl)-benzamide]"

# Reference: patent US6730670B2, “7-phenyl-benzo[b]thiophen amide derivatives” (Hoffmann-La Roche Inc., priority 2001, dated 2004)
